Test results as given in PMC13198257, “An aerosolized dual-action autotaxin inhibitor-PPARγ agonist for the treatment of pulmonary fibrosis” (Cell Reports Medicine, 2026).

Key:
ATX activity in serum = experiment: TOOS assay: ex vivo lyso-PLD (ATX) activity in serum with 2 mM exogenous LPC; format: biochemical
Procedure: ATX inhibitory activity ex vivo of examined compounds was assessed via the colorimetric TOOS assay.[32]^,[35]^,[36] The assay was done in Lyso-PLD buffer (100 mM Tris-Cl, pH 8, 500 mM NaCl, 5 mM MgCl2, 5 mM CaCl2). A mix of Lyso-PLD buffer and serum (10:1) was prepared. LPC 16:0 was added to this mix at a final concentration of 2 mM. Increasing concentrations of compounds and a choline standard curve (0–100 μM) were prepared using the Lyso-PLD buffer/serum/LPC mix and 100 μL of these were placed in separate wells of a 96-well plate, followed by a 5 h incubation at 37°C. 100 μL of color mix (TOOS 0.3 mM, 4-AAP 0.5 mM, choline oxidase 2 U/mL, HRP 7.95 U/mL in Lyso-PLD buffer) were added to each well. Color was measured at 550 nm using an Optimax spectrophotometer. Background was subtracted from all values to account for the endogenous LPC and choline in the serum. Produced choline levels were calculated from the choline standard curve and indicate the amount of substrate (LPC) that had been consumed in each well corresponding to Lyso-PLD activity.

PPARγ = biological target: T1, PPARγ (Homo sapiens, UniProt P37231); experiment: PPARγ Gal4 hybrid reporter gene assay; format: cell-based; conditions: for EC50 / PPARγ fold activ. (max. activation): Gal4-hybrid reporter, HEK293T cells; for Selectivity for PPARγ: versus PPARα and PPARδ hybrid reporters
T1 construct: expressed in transfected cells; host or cells: HEK293T
T1 sequence (P37231 238-503 limits assumed): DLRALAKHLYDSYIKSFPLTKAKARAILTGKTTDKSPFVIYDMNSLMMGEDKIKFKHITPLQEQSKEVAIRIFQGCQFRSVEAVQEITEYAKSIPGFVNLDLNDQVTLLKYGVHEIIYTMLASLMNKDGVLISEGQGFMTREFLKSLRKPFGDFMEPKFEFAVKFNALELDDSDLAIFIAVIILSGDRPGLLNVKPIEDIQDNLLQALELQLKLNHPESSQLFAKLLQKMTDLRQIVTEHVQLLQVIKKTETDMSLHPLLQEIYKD
Procedure: All well-established assays were performed following straightforward methodology.[49] Plasmids pFA-CMV-hPPARα-LBD, pFA-CMV-hPPARγ-LBD and pFA-CMV-hPPARδ-LBD code for the hinge region and ligand binding domain of the canonical isoform of the respective nuclear receptor and were used to express the Gal4 hybrid receptors. pFR-Luc (Stratagene, La Jolla, CA, USA) and pRL-SV40 (Promega, Madison, WI, USA) were used as Gal4-responsive reporter and as internal control in the hybrid reporter gene assays, respectively. HEK293T cells were seeded in 96-well plates (3×10^4 cells/well). Before transfection, the medium was changed to Opti-MEM without supplements, and transient transfection with the plasmids pFR-Luc, pRL-SV40, and one pFA-CMV-NR-LBD clone was carried out using Lipofectamine LTX reagent (Invitrogen, Carlsbad, CA, USA) according to the manufacturer’s protocol. […] Normalisation of transfection efficiency and cell growth was performed by dividing firefly luminescence by Renilla luminescence and multiplying the result by 1000, yielding relative light units (RLU). Fold activation was obtained by dividing the mean RLU of the test compound by the mean RLU of the untreated control.

Autotaxin = biological target: T2, Autotaxin (Homo sapiens, UniProt Q13822); experiment: HDX-MS of Autotaxin with and without EL244; format: binding
T2 construct: purchased Sino Biological 11308-H07H
Procedure: All HDX experiments were performed using a dual head parallel Trajan LEAP automation system (Carrboro, NC, USA).[153] Briefly, 5μL of reconstituted Autotaxin (1.25mg/mL) with and without EL244, was diluted into 100μL of labeling buffer (10mM PBS, 150mM sodium chloride, pD = 7.4 in D2O). pD was determined using pH measurements with a glass electrode and corrected for the isotopic effect.[154] Samples were labeled in quadruplicate for each labeling time (30s, 300s and 3000s) at 25°C. For experiments with bounded Autotaxin, both the protein stock and labeling buffer contained 50μM of the ligand to ensure >95% bound protein during labeling.[155] Afterward, 100 μL of labeled samples were quenched by mixing with equal amounts of precooled quench buffer (100mM glycine, 3M urea, 0.5M TCEP, pH 2.3 in water) at 1°C and held at that temperature for 120s to improve disulfide bond reduction. Non-deuterated controls and initial peptide map samples were prepared identically but using 10mM PBS, 150mM sodium chloride, pH = 7.4 in water as labeling buffer. […] Peptide masses were measured using a Waters SELECT SERIES cyclic IMS QTOF system using positive mode ionization and single pass ion mobility. All HDX experiments were measured using HDMS mode while initial peptide maps used HDMSE with a collision energy ramp of 20-45v.[156] […]

Structure (SMILES)	lyso-PLD (ATX) inhibition in serum (ATX activity in serum)	EC50 (PPARγ) [nM]	PPARγ fold activ. (max. activation) (PPARγ) [fold]	Selectivity for PPARγ (PPARγ)	Binding site on ATX (Autotaxin; HDX-MS, protected region 214–289 mapped on 2XR9)	ATX inhibitor type (Autotaxin; HDX/MS and MD analysis)
O=C1NC(=O)C(Cc2ccc(OCCN3CCN(C(=O)OCc4cc(Cl)cc(Cl)c4)CC3)cc2)S1 (stereo not shown) [Compound 5, 3,5-dichlorobenzyl4-(2-(4-((2,4-dioxothiazolidin-5-yl)methyl)phenoxy)ethyl)piperazine-1-carboxylate]	dose-dependent effect	1500	9 ± 1	selective PPARγ agonist	–	–
O=C1NC(=O)C(Cc2ccc(OCCC3CCN(C(=O)OCc4cc(Cl)cc(Cl)c4)CC3)cc2)S1 (stereo not shown) [EL244, 3,5-dichlorobenzyl 4-(2-(4-((2,4-dioxothiazolidin-5-yl)methyl)phenoxy)ethyl)piperidine-1-carboxylate]	Improved lyso-PLD inhibition	1300	17 ± 1	selectively	binds to the hydrophobic pocket and the allosteric tunnel of ATX	type IV ATX inhibitor
